Experimental findings from ChEMBL document CHEMBL4433229, “Development of novel macrocyclic small molecules that target CTG trinucleotide repeats” (Bioorg Med Chem, 2019) are described below.

Data set [1] is described as follows: Selectivity ratio of cytotoxicity of compound to cytotoxicity of NC for human HeLa cells. The format is cell-based.
Data set [2] in a line: Selectivity ratio of transcription inhibition of random DNA sequence (unknown origin) to transcription inhibition of d(CTG.CAG)74 DNA sequence (unknown origin) by PAGE analysis.
Data set [3] deals with HeLa. In words: Cytotoxicity against human HeLa cells assessed as reduction in cell viability at 0.2 to 100 uM after 72 hrs by SRB assay relative to control. Format: cell-based.
Data set [4] in a line: Binding affinity to d(CTG) U-U DNA sequence (unknown origin) assessed as equilibrium dissociation constant by isothermal titration method.
Data set [5] in a line: Inhibition of d(CTG.CAG)74 DNA sequence (unknown origin) transcription at 25 uM pre-incubated for 3 hrs followed by addition of T7 polymerase and measured after 1.5 hrs by PAGE analysis.
Data set [6] can be described thus: Binding affinity to d(CTG) T-T DNA sequence (unknown origin) assessed as equilibrium dissociation constant by isothermal titration method. As to conditions: read-out: Kd(app). (In general: ITC needs no label: the signal is the heat of the interaction.)
Data set [7] in a line: Potency index, ratio of transcription inhibition of NC to transcription inhibition of compounds for d(CTG.CAG)74 DNA sequence by PAGE analysis.
Data set [8] is described as follows: Binding affinity to d(CTG) A-A DNA sequence (unknown origin) assessed as equilibrium dissociation constant by isothermal titration method.
The nature of data set [9]: Binding affinity to d(CTG) C-C DNA sequence (unknown origin) assessed as equilibrium dissociation constant by isothermal titration method. As to conditions: for Kd: read-out: Kd(app).
Data set [10] relates to DNA. In words: Inhibition of random DNA sequence (unknown origin) transcription at 50 uM pre-incubated for 3 hrs followed by addition of T7 polymerase and measured after 1.5 hrs by PAGE analysis. The format is nucleic-acid assay.
Data set [11] is described as follows: Binding affinity to d(CTG) duplex DNA sequence (unknown origin) assessed as equilibrium dissociation constant by isothermal titration method.
Data set [12] deals with HeLa. Nature of the data set: Cytotoxicity against human HeLa cells assessed as reduction in cell viability after 72 hrs by SRB assay relative to control. The format is cell-based. For orientation: In SRB staining, fixed cells bind dye roughly in proportion to their protein.
Data set [13] deals with DNA. Nature of the data set: Inhibition of random DNA sequence (unknown origin) transcription at 0 to 50 uM pre-incubated for 3 hrs followed by addition of T7 polymerase and measured after 1.5 hrs by PAGE analysis. Format: nucleic-acid assay.
Data set [14] has as its system DNA. Nature of the data set: Inhibition of random DNA sequence (unknown origin) transcription at 100 uM pre-incubated for 3 hrs followed by addition of T7 polymerase and measured after 1.5 hrs by PAGE analysis. Format: nucleic-acid assay.
Data set [15] in a line: Inhibition of d(CTG.CAG)74 DNA sequence (unknown origin) transcription at 6 uM pre-incubated for 3 hrs followed by addition of T7 polymerase and measured after 1.5 hrs by PAGE analysis.
Data set [16] has as its system DNA. In words: Inhibition of random DNA sequence (unknown origin) transcription at 25 uM pre-incubated for 3 hrs followed by addition of T7 polymerase and measured after 1.5 hrs by PAGE analysis. The format is nucleic-acid assay.
The test system of data set [17] is HeLa. In words: Cytotoxicity against human HeLa cells assessed as reduction in cell viability at 6 uM after 72 hrs by SRB assay relative to control. Format: cell-based.
The nature of data set [18]: Binding affinity to d(CTG)2 DNA sequence (unknown origin) assessed as equilibrium dissociation constant by isothermal titration method.
Data set [19] is described as follows: Binding affinity to r(CUG)4 RNA sequence (unknown origin) assessed as equilibrium dissociation constant by isothermal titration method.
Data set [20] can be described thus: Inhibition of MBNL1 binding to r(CUG)12 RNA sequence (unknown origin) assessed as inhibition constant by gel electrophoresis mobility shift assay.
The nature of data set [21]: Binding affinity to r(CUG)12 RNA sequence (unknown origin) assessed as equilibrium dissociation constant by isothermal titration method.
Data set [22] can be described thus: Binding affinity to d(CTG) T-T 2 DNA sequence (unknown origin) assessed as equilibrium dissociation constant by isothermal titration method.
In data set [23] the test system is HeLa. Nature of the data set: Cytotoxicity against human HeLa cells assessed as reduction in cell viability at 25 uM after 72 hrs by SRB assay relative to control. Format: cell-based.
Data set [24] can be described thus: Binding affinity to d(CTG) T-T DNA sequence (unknown origin) assessed as mole fraction of compound required to show 1.3:1 stoichiometry for compound-DNA complex at 50 uM by Job's plot analysis.
Data set [25] is described as follows: Binding affinity to d(CTG) T-T DNA sequence (unknown origin) assessed as mole fraction of compound required to show 2:1 stoichiometry for compound-DNA complex at 50 uM by Job's plot analysis.
Data set [26] in a line: Binding affinity to d(CTG) T-T 3 DNA sequence (unknown origin) assessed as equilibrium dissociation constant by isothermal titration method.
Data set [27] in a line: Binding affinity to d(CTG) T-T DNA sequence (unknown origin) assessed as mole fraction of compound required to show 1:1 stoichiometry for compound-DNA complex at 50 uM by Job's plot analysis.
Data set [28] can be described thus: Displacement of ethidium from d(CTG)2 DNA sequence (unknown origin) and measured by fluorescence method relative to NC.

Molecules are shown by their SMILES. Activity calls are given as the source filed them. The rule behind the calls is not given here.

For the compound `Nc1nc2nc(n1)NCCCCNc1c3ccccc3nc3c(cccc13)C(=O)NCCCCN2`, in data set [1], the selectivity ratio was 10. For the same compound, the Selectivity ratio in data set [2] stood at 3. Besides, the Activity result in the data set with HeLa [3] is listed as “Toxic”.

As to `Nc1nc2nc(n1)NCCCNc1c3ccccc3nc3c(cccc13)C(=O)NCCCCN2`, in data set [1], the selectivity ratio worked out at 10. Also, the “Kd(app)” value in [4], in data set [8] and in [11] was “inactive” each time. The inhibition in data set [5] turned out to be 60%; with DNA [10] it was 45%. The Kd in data set [6] came to 34.9 µM; in [9], 404 µM. Also, the Selectivity ratio in [7] came out at 4; in [2], 3. In the data set on HeLa [12], the IC50 was more than 100 µM.

Turning to `Nc1nc2nc(n1)NCCCNC(=O)c1cccc3c(c4ccccc4nc13)NCCCCN2`, the selectivity ratio in data set [1] worked out at 10. In addition, the “Kd(app)” value in data set [4], in data set [8], in [9] and in data set [11] was “inactive” in each case. For the same compound, the inhibition in the data set with DNA [13] is less than 10%; with DNA [14], less than 20%; in data set [5], 85%; in data set [15], 45%; in the data set with DNA [16] it was -0%. Moreover, in [6], the Kd was 19.8 µM. Also, in data set [7], the Selectivity ratio came to 4. Further, the Activity entry is listed as “Toxic” with HeLa [3] and less than 10% in the data set with HeLa [17]. In addition, the IC50 in the data set on HeLa [12] was determined as 20 µM.

For the compound `COc1ccc2nc3cc(Cl)ccc3c(NCCCCNc3nc(N)nc(N)n3)c2c1`, the Kd in data set [18] and in data set [19] was 300 to 400 nM each time. The inhibitory constant (Ki) in data set [20] came out at 6 µM.

Turning to `Nc1nc2nc(n1)NCCCCCNc1c3ccccc3nc3c(cccc13)C(=O)NCCCCCN2`, the selectivity ratio in data set [1] was found to be 10. In the data set with HeLa [3], the Activity result is recorded as “Toxic”.

Consider `CNC(=O)c1cccc2c(NCCCCNc3nc(N)nc(N)n3)c3ccccc3nc12`, for which the Kd in data set [4] (read-out: Kd(app)) turned out to be 17.9 µM; in data set [6], 5.8 µM; in data set [9], 159 µM; in [11] (read-out: Kd(app)) it was 69 µM. Moreover, the inhibition in data set [5] was 35%; with DNA [10], 45%. For the same compound, the Selectivity ratio in data set [2] was 3.

Turning to `N=C(NCCCCNc1nc(N)nc(N)n1)c1ccc(C(=N)NCCCCNc2nc(N)nc(N)n2)cc1`, the Ki in [21] and in data set [20] was 8 µM each time.

For the compound `Nc1nc2nc(n1)NCCCNc1c3ccccc3nc3c(cccc13)C(=O)NCCCN2`, the Kd in data set [22] came out at 19.8 µM; in data set [6], 18.1 µM; in data set [26], 15.1 µM. Besides, the selectivity ratio in data set [1] was 10. For the same compound, the “Kd(app)” value in data set [4], in [8], in data set [9] and in data set [11] was “inactive” each time. Also, in the data set with HeLa [23], the Activity result is recorded as “Non-Toxic”. Moreover, the inhibition in the data set on DNA [14] was determined as 45%; in [5] it was 60%. Besides, the Activity (mole fraction) in data set [24] came out at 0.57; in data set [25], 0.68; in data set [27], 0.5. Moreover, the Selectivity ratio turned out to be 4 in [7] and 3 in data set [2]. For the same compound, the outcome in data set [28] was Active.

Broadly, the inhibition is the drop in the measured response relative to a control, in per cent. The low end stands for little suppression, the high end for strong suppression. As a reminder, the IC50 is the concentration at which inhibition is half-maximal. One may read the Ki as the dissociation constant of the complex between target and ligand, obtained from inhibition or displacement.
